Source: patent EP0377642B1, “HERBICIDES FOR WEED CONTROL IN RICE” (E.I. DU PONT DE NEMOURS AND COMPANY, priority 1987, dated 1989)
Like-named read-outs stand apart in the source and are kept apart here.

Columns and labels:
Assay type in all cases: in vivo
[1] = system: WEED; assay: Field test applied 7 DAS in direct seeded rice in the Philippines, weed cover (Table 14); settings: 47 DAA
From the text: (§1) Methyl 2-[[[[(4-methoxy-6-methyl-1,3,5-triazin-2-yl)amino]carbonyl]amino]sulfonyl]benzoate (Compound 1) and mixtures thereof with other compounds were applied as a spray (using a hand sprayer) to rice (either transplanted or direct seeded) in several rice growing areas in Southeast Asia and in the U.S. Tables 1-28 contain the results of these tests and clearly exemplify the utility of this invention. The details of each application are included in the appropriate table. [drawing 2]

[2] = system: direct seeded rice; settings: for PHYTO at 2WAA: scale 0-10;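 for YIELD: yield in Tons/ha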
From the text: as §1

[3] = system: WEED; assay: Effects in combination with Bensulfuron Methyl and Thiobencarb or Pretilachlor on weed control (Table 24); settings: rate 25 g ai/ha, scale 0 to 10, treated at 1.0 leaf stage, evaluated four weeks later
From the text: as §1

[4] = system: Sphenoclea zeylanica; assay: Herbicidal efficacy with Bensulfuron methyl and 2,4-D in Thailand (Table 19); settings: 13 days after treatment
From the text: as §1

[5] = system: Cuperus difformis; assay: as above; settings: 13 days after treatment
From the text: as §1

[6] = system: Ludwigia linifolia; assay: as above; settings: 13 days after treatment
From the text: as §1

[7] = system: rice; assay: as above; settings: 13 days after treatment
From the text: as §1

[8] = system: SEDGE; assay: Field test applied 7 DAS in direct seeded rice in the Philippines, cover (Table 14); settings: 47 DAA
From the text: as §1

[9] = system: Barnyardgrass (Echinochloa crus-galli); assay: as above; settings: 47 DAA
From the text: as §1

[10] = system: Sphenoclea zeylanica; assay: Field test applied at 25 DAS in direct seeded rice (Table 13); settings: scale 0-10
From the text: as §1

[11] = system: Cyperus iria; assay: as above; settings: scale 0-10
From the text: as §1

[12] = system: direct seeded rice; assay: Field test applied 7 DAS in direct seeded rice in the Philippines, phytotoxicity (Table 14); settings: 30 DAA
From the text: as §1

[13] = system: FIMBRISTYLIS MILIACEA; assay: Herbicidal efficacy with Bensulfuron methyl and 2,4-D in Thailand (Table 20); settings: 14 days after treatment
From the text: as §1

[14] = system: Sphenoclea zeylanica; assay: as above; settings: 14 days after treatment
From the text: as §1

## COC(=O)c1ccccc1CS(=O)(=O)NC(=O)Nc1nc(OC)cc(OC)n1 [Bensulfuron methyl, methyl 2-[[[[[(4,6-dimethoxy-2-pyrimidinyl)amino]carbonyl]amino]sulfonyl]methyl]benzoate]
[1]; 8.25 G AI/HA
  % WEED COVER: 29%
[1]; 12.0 G AI/HA
  % WEED COVER: 20%
[1]; 16.50 G AI/HA
  % WEED COVER: 28%
[2]; 7 DAS, 10 GM.A.I./HA
  YIELD: 4.92 TONS/HA
  PHYTO at 2WAA: 0
[2]; 7 DAS, 15 GM.A.I./HA
  YIELD: 4.99 TONS/HA
  PHYTO at 2WAA: 0
[2]; 7 DAS, 20 GM.A.I./HA
  YIELD: 5.01 TONS/HA
  PHYTO at 2WAA: 0
[2]; 7 DAS, 30 GM.A.I./HA
  YIELD: 4.67 TONS/HA
  PHYTO at 2WAA: 0
[2]; 18 DAS, 10 GM.A.I./HA
  YIELD: 4.61 TONS/HA
  PHYTO at 2WAA: 0
[2]; 18 DAS, 15 GM.A.I./HA
  YIELD: 4.49 TONS/HA
  PHYTO at 2WAA: 0
[2]; 18 DAS, 20 GM.A.I./HA
  YIELD: 4.61 TONS/HA
  PHYTO at 2WAA: 0
[2]; 18 DAS, 30 GM.A.I./HA
  YIELD: 5.17 TONS/HA
  PHYTO at 2WAA: 0
[3]; Cyperus difformis
  WEED CONTROL RATINGS CD: 1
[3]; Cyperus serotinus
  WEED CONTROL RATINGS CS: 6
[3]; Echinochloa oryzicola
  WEED CONTROL RATINGS EO: 1
[3]; Lindernia pyxidaria
  WEED CONTROL RATINGS BL: 10
[3]; Monochoria vaginalis
  WEED CONTROL RATINGS MV: 10
[3]; Sagittaria pygmaea
  WEED CONTROL RATINGS SP: 8.5
[3]; Scirpus juncoides
  WEED CONTROL RATINGS SJ: 5
[4]; 10 GAI/HA
  % CONTROL OR INJURY SZ: 88%
[4]; 15 GAI/HA
  % CONTROL OR INJURY SZ: 100%
[4]; 20 GAI/HA
  % CONTROL OR INJURY SZ: 100%
[5]; 10 GAI/HA
  % CONTROL OR INJURY CD: 100%
[5]; 15 GAI/HA
  % CONTROL OR INJURY CD: 100%
[5]; 20 GAI/HA
  % CONTROL OR INJURY CD: 100%
[6]; 10 GAI/HA
  % CONTROL OR INJURY LL: 100%
[6]; 15 GAI/HA
  % CONTROL OR INJURY LL: 100%
[6]; 20 GAI/HA
  % CONTROL OR INJURY LL: 100%
[7]; 10 GAI/HA
  % CONTROL OR INJURY RICE: 0%
[7]; 15 GAI/HA
  % CONTROL OR INJURY RICE: 0%
[7]; 20 GAI/HA
  % CONTROL OR INJURY RICE: 0%
[8]; 8.25 G AI/HA
  % SEDGE COVER: 4%
[8]; 12.0 G AI/HA
  % SEDGE COVER: 2%
[8]; 16.50 G AI/HA
  % SEDGE COVER: 2%
[9]; 8.25 G AI/HA
  % BYG COVER: 29%
[9]; 12.0 G AI/HA
  % BYG COVER: 17%
[9]; 16.50 G AI/HA
  % BYG COVER: 28%
[10]; 10 GM.A.I./HA
  WEED CONTROL at 6 WAA SZ: 9.17
[10]; 15 GM.A.I./HA
  WEED CONTROL at 6 WAA SZ: 9.80
[10]; 20 GM.A.I./HA
  WEED CONTROL at 6 WAA SZ: 9.50
[10]; 30 GM.A.I./HA
  WEED CONTROL at 6 WAA SZ: 9.93
[11]; 10 GM.A.I./HA
  WEED CONTROL at 6 WAA CI: 9.67
[11]; 15 GM.A.I./HA
  WEED CONTROL at 6 WAA CI: 9.83
[11]; 20 GM.A.I./HA
  WEED CONTROL at 6 WAA CI: 10
[11]; 30 GM.A.I./HA
  WEED CONTROL at 6 WAA CI: 10
[12]; 8.25 G AI/HA
  PHYTO (1-9): 1.3
[12]; 12.0 G AI/HA
  PHYTO (1-9): 1
[12]; 16.50 G AI/HA
  PHYTO (1-9): 1.7
[13]; 10 GAI/HA
  % CONTROL OR INJURY FM: 80%
[13]; 15 GAI/HA
  % CONTROL OR INJURY FM: 100%
[13]; 20 GAI/HA
  % CONTROL OR INJURY FM: 100%
[14]; 10 GAI/HA
  % CONTROL OR INJURY SZ: 23%
[14]; 15 GAI/HA
  % CONTROL OR INJURY SZ: 60%
